The numbers were not newly measured in patent US12357645B2, “Drug combination for treatment of gastric cancer” (priority 2023, dated 2025), which cites them from elsewhere.

For series [1] the following is noted: cited from earlier work.
In another series the test system is gastric cancer. The settings on record: by stimulating expression of p53 and p21 (waf1/cip1); cited from earlier work.

Take `CC(C)[C@]12O[C@H]1[C@@H]1O[C@]13[C@]1(O[C@H]1C[C@H]1C4=C(CC[C@@]13C)C(=O)OC4)[C@@H]2O` [triptolide, reference compound]: the aqueous solubility entry in series [1] is recorded as “limited aqueous solubility”. For the same molecule, the “cell growth and apoptosis” value with gastric cancer was “inhibit cell growth and induce apoptosis”.
